Experimental findings from ChEMBL document CHEMBL5728032, “Fluorine-containing triazolopyridine, and manufacturing method, pharmaceutical composition, and application thereof” (2020) are described below.

Each structure is given as a SMILES string.

The target in this assay is Metabotropic glutamate receptor 2 (Homo sapiens, UniProt Q14416). As to the kind of experiment: In Vitro Activity Test for mGluR2: Experimental materials: HEK/mGluR2 cell line ([…] transfected HEK cell line), DMEM (FBS) medium, positive control LY487379 (purchased from sigma; CAS: to 352317-17-1)Experimental instrument: FLIPR Tetra real-time fluorescence imaging analysis systemExperimental method: HDB Fluo-8 calcium fluorescence detection methodExperimental principle: HDB Fluo-8 calcium ion fluorescence detection method is a fast, simple and reliable fluorescence detection method of intracellular calcium concentration changes. The Fluo 8-AM fluorescent dye is an acetyl methyl ester derivative of Fluo 8 which can easily penetrate into the cell membrane by culture. The fluorescent dye in the cell will be hydrolyzed by intracellular esterase, the resulting Fluo 8 as a polar molecule, cannot easily pass through the lipid bimolecular membrane, and will be retained in the cell, and combine with calcium (Ca2+) to produce fluoresces.Cells expressing GPCR receptor protein (mGluR2) were first calibrated with a calcium ion sensitive fluorescent probe and then stimulated with the compound. After stimulation, the receptor activates the calcium ion mobilization, and the fluorescent probe captures the calcium ion to induce the fluorescence signal. The signal can be read by a fluoroscopy plate. The fluorescent plate reader contains a sample addition for compound addition, thus enabling the change of the fluorescence value of the compound be read in real time. Type of assay: cell-based. In general terms: Calcium assays in cells follow changes in intracellular calcium, usually with a dye or a luminescent sensor.
Sequence of Metabotropic glutamate receptor 2 (Q14416 whole entry): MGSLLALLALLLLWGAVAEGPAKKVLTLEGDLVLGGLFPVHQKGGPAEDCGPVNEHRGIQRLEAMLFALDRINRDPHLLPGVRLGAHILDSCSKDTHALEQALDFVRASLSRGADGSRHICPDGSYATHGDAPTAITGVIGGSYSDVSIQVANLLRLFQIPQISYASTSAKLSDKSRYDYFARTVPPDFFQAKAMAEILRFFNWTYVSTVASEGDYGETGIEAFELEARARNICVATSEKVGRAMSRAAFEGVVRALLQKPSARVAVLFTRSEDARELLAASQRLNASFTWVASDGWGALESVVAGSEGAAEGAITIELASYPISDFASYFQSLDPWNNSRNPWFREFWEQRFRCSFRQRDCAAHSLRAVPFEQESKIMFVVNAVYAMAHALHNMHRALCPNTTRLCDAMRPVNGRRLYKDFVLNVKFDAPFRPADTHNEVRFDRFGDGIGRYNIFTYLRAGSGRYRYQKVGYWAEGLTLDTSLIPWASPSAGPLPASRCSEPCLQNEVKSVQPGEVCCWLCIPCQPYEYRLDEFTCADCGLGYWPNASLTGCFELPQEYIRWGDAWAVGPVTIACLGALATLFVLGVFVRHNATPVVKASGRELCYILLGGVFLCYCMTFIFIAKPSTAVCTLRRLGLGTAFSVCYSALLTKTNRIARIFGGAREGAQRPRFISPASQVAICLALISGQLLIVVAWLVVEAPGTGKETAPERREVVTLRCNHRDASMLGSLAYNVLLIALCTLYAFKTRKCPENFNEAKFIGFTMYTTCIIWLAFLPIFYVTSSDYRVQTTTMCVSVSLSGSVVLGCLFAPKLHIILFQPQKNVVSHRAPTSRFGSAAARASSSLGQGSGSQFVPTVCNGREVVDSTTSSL
As to `COC(=O)c1ccc(-c2ccn3c(CC4CC4)nnc3c2Cl)c(F)c1`, the half-maximal effective concentration (EC50) was 910 nM.
Regarding `Clc1c(-c2ccc3c(c2)OCO3)ccn2c(CC3CC3)nnc12`, the 50% effective concentration (EC50) worked out at 890 nM.
With `c1cc2c(cc1-c1ccn3c(CC4CC4)nnc3c1)OCO2`, the half-maximal effective concentration (EC50) was determined as 970 nM.

A word on the EC50: it is the concentration at which the effect is half-maximal.
